Assay results as given in patent publication US20130331381A1, “Treatment of Cancer WIth Dopamine Receptor Antagonists” (McMaster University, priority 2011, published 2013).
Where a name gives a salt, the structure may show the parent alone. Read-outs that look alike come from different tables or passages of the source.

How the values were obtained:
neoplastic hPSCs = test: TaqMan Low-Density Array-qPCR of differentiation genes; assay type: cell-based, human; conditions: thioridazine-treated neoplastic hPSCs
Description: Cells in specific conditions were collected and RNA was extracted by using RNeasy kit (Qiagen), complementary DNA (cDNA) generation by using SuperScript III® cDNA synthesis kit (Invitrogen), pre-amplification and TaqMan® array reaction (Applied Biosystems) were performed according to manufacturer's instructions. The gene expression profile for each treated cell population was analyzed using TaqMan® Stem Cell Pluripotency Array Card on ViiA 7 Real-Time PCR System (Applied Biosystems). Each reaction sample was dispensed into loading wells on the array card and centrifuged twice at 336×g for 1 min each time, sealed, and placed in the thermal cycler. The following cycling conditions were used for all array card applications: 45° C. for 10 min, 94° C. for 10 min, and 40 cycles of 94° C. for 30 s followed by 60° C. for min. Array data were normalized to 18S RNA and GAPDH and comparisons were performed using data analysis 2.0 software (Applied Biosystems).

v1H9-Oct4-GFP cells = test: Chemical screen for differentiation of neoplastic hPSC (GFP and Hoechst); assay type: cell-based; conditions: Homo sapiens; for activity at 10 µM: 72 h, read-out: Hoechst % RA (residual activity)
Description: Chemical screens involved v1H9-Oct4-GFP cells seeded at 5,000 cells per well in mouse embryonic fibroblast conditioned media (MEFCM) supplemented with 8 ng/ml bFGF. 24 hours later the media was exchanged for MEFCM with compounds at 10 μM and 0.1% DMSO, 0.1% DMSO (−BMP4) or 100 ng/ml of BMP4 and 0.1% DMSO (+BMP4) for 48 hours before being exchanged with fresh media with compound for a further 24 h (total compound treatment time 72 h) prior to being fixed and prepared for automated imaging and plate reader analysis. Confluent H9 & fibroblast-derived iPSC were seeded at 10,000 cells per well in MEFCM supplemented with 8 ng/ml bFGF. 24 hours later the cells were treated with compounds at 10 μM and 0.1% DMSO, 0.1% DMSO (−BMP4) or 100 ng/ml of BMP4 and 0.1% DMSO (+BMP4). Fresh MEFCM supplemented with compounds was exchanged daily for 5 days. On day 5, hPSC's were fixed and prepared for automated imaging and plate reader analysis. See supplementary experimental procedures for further details.
Cells were fixed in 2% paraformaldehyde and stained with 10 μg/mL Hoechst 33342 (Invitrogen) with a Combi Multidrop Dispenser (Thermo). For experiments that involved Oct4 immunocytochemistry, a monoclonal antibody for Oct4 (BD) was used along with an Alexa-Fluor-647 secondary (Invitrogen). Immunocytochemical staining was performed by a Janus automated liquid handler (Perkin Elmer). Images were acquired at 10×N.A with an Arrayscan HCS VTI Reader (Cellomics) by means of epi-fluorescence illumination and standard filter sets.
Image analysis was performed using custom scripts in Acapella software (Perkin Elmer). Nuclear objects were segmented from the Hoechst signal. For neoplastic cell lines, object intensity analysis was performed on GFP positive cells only. For normal cell lines, the fraction of Alexa-Fluor-647-positive cells was quantified. Images and well-level data were stored and analysed in a Columbus Database (Perkin Elmer) and further data analysis, compounds registration and hit identification in ActivityBase (IDBS).
These Collections have been previously scrutinized in numerous other mammalian cell lines (Diallo et al., 2010; Shoemaker, 2006).

primary AML cells = test: Methylcellulose blast-CFU assay, primary AML cells; assay type: cell-based, human; conditions: for AML-blast CFU potential: salinomycin at 1 μM and 10 μM, 24 h treatment, 5 AML patient samples
Description: (§3) Normal HSCs and progenitors were sourced from either mobilized peripheral blood or umbilical cord blood of health patients. Primary AML cells were taken from patients diagnosed with AML. Both normal HSCs and primary AML cells were cultured under standard in vitro methocellulose assay conditions (see http://www.stemcell.com/en/Products/All-Products/MethoCult-H4434-Classic.aspx as well as Clinton Campbell et al. The human stem cell hierarchy is defined by a functional dependence on Mcl-1 for self-renewal capacity. Blood 116 (9) 1433-1442 (Jun. 4, 2010), hereby incorporated by reference) for at least 14 days before the number of colonies were recorded.
(§4) AML patient blasts were cultured in IMDM supplemented with 5% heated inactivated FBS (HyClone), 5 ng/mL IL3 (R&D systems), 5×10^−5 M β-mercaptoethanol (Sigma) and BIT (StemCell Technologies). HSC media contained IMDM supplemented with 1% BSA (Sigma), 100 ng/mL SCF (R&D systems), 100 ng/mL Flt-3L (R&D systems) and 20 ng/mL TPO (R&D systems). Patient HSPC and AML samples were treated with compound or DMSO-vehicle (0.1%) for 24 h prior to CFU plating or xenotransplantation studies.
(§5) AML patient or CB lin− cells were cultured 24 hours in the presence of compound or DMSO-vehicle (0.1%) control. AML cells were plated at 50 000 cells/mL in Methocult GF H4434 (Stem Cell Technologies). CB lin− cells were plated at 1000 cells/mL in Methocult GF H4434 (Stem Cell Technologies). Colonies were scored after 14 days of culture using standard morphological criteria.

patient AML cells = test: CD11b granulocytic maturation in patient AML cells; assay type: cell-based, human; conditions: 10 μM, up to 96 hours
[1] = tested on: HL-60, MV4-11 and OCI-AML3; test: Cytotoxicity to leukemic cell lines (normalized cell number, 72 h); assay type: cell-based, human; conditions: for normalized cell number / toxicity: 10 μM
Description: (§1) All three lines are leukemic cell lines. HL-60 was derived from promyelocytic AML whereas MV 4-11 and OCI-AML3 are representative of AML. Each compound was incubated with the cells for 72 h. The control was DMSO (ie the vehicle used for the compound) for 72 h. Each condition had three replicates.
The dopamine receptor antagonist and phenothiazine-related compound chlorpromazine was also investigated for effects on the AML cell lines HL-60, MV4-11 and OCI-AML3. Testing was performed as set out in Example 1.

[2] = tested on: neoplastic hPSCs (v1H9-Oct4-GFP); test: Flow cytometry of Oct4 in neoplastic hPSCs; assay type: cell-based, human; conditions: FIG. 10b
AML-OCI2 and AML-OCI3 = test: Volumetric cell counting of AML cell lines; assay type: cell-based, human; conditions: 72 h, serum-free conditions
Description: The number of AML-OCI2 and AML-OCI3 cells present after 72 h treatment with DR antagonists (FIG. 16b) and agonist (FIG. 16c-d) were counted by measuring the number of events within a fixed volume following the grating strategy defined by forward scatter and side scatter clustering, 7AAD− and Hoechst+.
(§2) Due to the bioavailability of dopamine in fetal bovine serum (FBS) (Little et al., 2002), serum-free conditions were employed to assess the role of DRs in AML. […] DR D2-family and D1-family exert opposing actions on intracellular signaling leading to differential biological effects (Self et al., 1996).

AML LSCs = test: Xenotransplantation of compound-treated AML cells; assay type: in vivo, human; conditions: AML cells treated at 10 μM, NSG mice
Description: NOD.Cg-Prkdc^scid II2rg^tm1Wjl/SzJ adult mice (NSG) were sub-lethally irradiated with 315 rads 24 hours prior transplantation. 0.8−1.0×10^7 AML MNCs or 1.5−1.8×10^5 CB lin− hematopoietic cells treated with compound or DMSO-vehicle for 24 h were injected via tail vein (IV). After 6-10 weeks, animals were culled, and the BM and spleen were analyzed for the presence of human cells by flow cytometry (LSRII, BD) and data was analyzed using FlowJo software (Tree Star Inc). For secondary HSPC transplants, equal number of engrafted human cells from CB lin− transplants were injected IV in adult irradiated NSG mice as described for primary transplants.

[3] = tested on: patient AML samples, DR+ and DR- subfractions; test: Blast-CFU content of DR+ and DR- sorted patient AML samples; assay type: cell-based, human; conditions: 24 h treatment
Text: as §2

[4] = tested on: HL-60, OCI-AML2 and OCI-AML3; test: Cytotoxicity of DR agonists and antagonists against AML cell lines; assay type: cell-based, human; conditions: CLOZ at higher concentrations; FIG. 6
Description: as §1
A series of dopamine receptor agonists, D3-antagonists, DR1 & 5-antagonists and multi-receptor antagonists were tested for cytotoxicity against three AML cell lines HL-60, OCI-AML2 and OCI-AML3. Testing was performed as set out in Example 1.

[5] = tested on: CD14+ cells in primary AML; test: Frequency of CD14+ cells in primary AML by flow cytometry; assay type: cell-based, human; conditions: 10 μM, 72 h; control 100%
[6] = tested on: normal HSCs and progenitors (CB lin-)
Description: as §3, §4, §5

[7] = tested on: normal HSCs and progenitors (CB lin-); test: Methylcellulose colony forming assay, normal HSCs / HSPCs; conditions: 10 μM, at least 14 days; DMSO control about 100
Description: as §3, §4, §5

With `CSc1ccc2c(c1)N(CCC1CCCCN1C)c1ccccc1S2` (racemic) [thioridazine, 10-{2-[(RS)-1-Methylpiperidin-2-yl]ethyl}-2-methylsulfanylphenothiazine] the upregulated differentiation-associated genes (neoplastic hPSCs) was 21 of 50, the activity at 10 µM (v1H9-Oct4-GFP cells; 10 μM) was > 30% and the “number of CFU colonies, AML cells” value (primary AML cells; 10 μM, at least 14 days, control about 22) was 1.6 blast colonies. For the same compound, the “AML-blast CFU potential” value (primary AML cells) was “reduced”, the “frequency of CD11b granulocytic AML-blast cells” value (patient AML cells) was “marked increase” and the normalized cell number ([1]; 0.1 μM and 1 μM) was “little effect”. For the same compound, the “normalized cell number / toxicity” value [1] was “almost zero”, the “cell number, neoplastic hPSCs” value [2] was “reductions” and the “levels of Oct4 in neoplastic hPSCs” value [2] was “reductions”. The “number of AML cells” value (AML-OCI2 and AML-OCI3) was “reduced”, the “AML LSC capacity (CD45+ CD33+ blast engraftment)” value (AML LSCs) was “significantly reduce” and the “blast-CFU generation, DR+ subfraction” value [3] was “reduction”. For the same compound, the “blast-CFU generation, DR- subfraction” value [3] was “no reduction”, the “cytotoxicity of AML cell lines” value [4] was “significant effect” and the “normalized frequency of CD14+ cells” value [5] was 20%. The “HSPC CFU potential” value [6] was “little effect” and the “colony forming potential of normal HSCs, total colonies” value [7] was “about 66 total colonies”.
In the case of `Br.CCCN(CCC)[C@@H]1CCc2ccc(O)cc2C1` [70H-DPAT, R(+)-7-Hydroxy-DPAT hydrobromide], the “number of AML cells” value (AML-OCI2 and AML-OCI3) is reported as “increased”.
In the case of `Oc1cc2c(cc1O)[C@@H](c1ccccc1)CNCC2` [SKF38393, (R)-(+)-SKF-38393 hydrochloride], the “number of AML cells” value (AML-OCI2 and AML-OCI3) is reported as “significant reduction”.
For `Cn1cnc([N+](=O)[O-])c1Sc1ncnc2nc[nH]c12` [azathioprine], the activity at 10 µM (v1H9-Oct4-GFP cells; 10 μM) was > 30%.
In the case of `CN(C)CCCN1c2ccccc2Sc2ccc(Cl)cc21` [chlorpromazine, Chlorpromazine hydrochloride], the “normalized cell number / toxicity” value [1] is reported as “toxic”, the “number of AML cells” value (AML-OCI2 and AML-OCI3) is reported as “reduced” and the “cytotoxicity of AML cell lines” value [4] is reported as “significant effect”.
For `CN1CCN(C2=Nc3cc(Cl)ccc3Nc3ccccc32)CC1` [clozapine, Clozapine], the “cytotoxicity of AML cell lines” value [4] was “significant effect”.
For `CNC1CC(c2ccc(Cl)c(Cl)c2)c2ccccc21` (stereo not shown) [indatraline], the activity at 10 µM (v1H9-Oct4-GFP cells) was > 30%.
For `OC(c1cc(C(F)(F)F)nc2c(C(F)(F)F)cccc12)C1CCCCN1` (stereo not shown) [mefloquine], the activity at 10 µM (v1H9-Oct4-GFP cells; 10 μM) was > 30%, the EC50 (v1H9-Oct4-GFP cells; dose response, FIG. 9g, read-out: EC50, reduction in GFP intensity) was < 10 µM and the “AML-blast CFU potential” value (primary AML cells) was “reduced”. The “cell number, neoplastic hPSCs” value [2] was “reductions”, the “levels of Oct4 in neoplastic hPSCs” value [2] was “reductions” and the “AML LSC capacity (CD45+ CD33+ blast engraftment)” value (AML LSCs) was “ineffective”. For the same compound, the “HSPC CFU potential” value [6] was “little effect”.
For `CC[C@@H](C(=O)[C@@H](C)[C@@H](O)[C@H](C)[C@@H]1O[C@@H]([C@@H](CC)C(=O)O)CC[C@@H]1C)[C@H]1O[C@]2(C=C[C@@H](O)[C@]3(CC[C@@](C)([C@H]4CC[C@](O)(CC)[C@H](C)O4)O3)O2)[C@H](C)C[C@@H]1C` [salinomycin], the “AML-blast CFU potential” value (primary AML cells) was “reduced” and the “HSPC CFU potential” value [6] was “reduced”.
